Source: ChEMBL document CHEMBL6153032, “Discovery of a highly potent, N-terminal domain-targeting degrader of AR-FL/AR-V7 for the treatment of prostate cancer” (Eur J Med Chem, 2025)
Calls of active or inactive are those of the source. The calls are words filed in the database; no cut-off is given here.

Legend:
[1] = molecular target: T1, Protein cereblon/Androgen receptor (Homo sapiens, UniProt P10275+Q96SW2); assay: PROTAC activity at full length Androgen receptor/CRBN in human LNCaP cells assessed as reduction in full length androgen receptor level at 1 uM by Western blot analysis; format: cell-based; conditions: time <= 4.0 hrs
T1 sequence (P10275 whole entry, looked up): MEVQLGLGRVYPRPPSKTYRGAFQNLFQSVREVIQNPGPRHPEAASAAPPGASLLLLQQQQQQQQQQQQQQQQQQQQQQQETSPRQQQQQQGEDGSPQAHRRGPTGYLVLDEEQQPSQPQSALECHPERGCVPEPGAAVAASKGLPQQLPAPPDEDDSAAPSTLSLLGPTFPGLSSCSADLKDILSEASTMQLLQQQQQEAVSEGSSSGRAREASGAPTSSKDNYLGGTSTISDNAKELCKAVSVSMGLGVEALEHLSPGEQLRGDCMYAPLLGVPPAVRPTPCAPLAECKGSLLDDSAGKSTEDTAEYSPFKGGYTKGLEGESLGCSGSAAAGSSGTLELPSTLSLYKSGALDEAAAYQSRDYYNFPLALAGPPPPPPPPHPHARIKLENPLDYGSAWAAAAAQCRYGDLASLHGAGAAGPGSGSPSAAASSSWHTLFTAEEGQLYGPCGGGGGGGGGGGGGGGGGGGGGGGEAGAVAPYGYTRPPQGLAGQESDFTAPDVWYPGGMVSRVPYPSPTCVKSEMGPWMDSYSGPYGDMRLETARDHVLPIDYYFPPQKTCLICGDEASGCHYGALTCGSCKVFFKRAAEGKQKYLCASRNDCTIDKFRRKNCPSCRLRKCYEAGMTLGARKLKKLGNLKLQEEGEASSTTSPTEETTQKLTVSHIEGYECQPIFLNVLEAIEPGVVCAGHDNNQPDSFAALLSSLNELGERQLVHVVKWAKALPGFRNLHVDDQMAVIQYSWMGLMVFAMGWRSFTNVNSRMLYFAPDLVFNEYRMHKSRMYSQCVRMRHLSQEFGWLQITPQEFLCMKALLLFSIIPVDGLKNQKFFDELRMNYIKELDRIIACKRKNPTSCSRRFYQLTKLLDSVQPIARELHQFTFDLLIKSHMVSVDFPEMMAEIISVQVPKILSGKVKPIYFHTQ
T1 sequence (Q96SW2 whole entry, looked up): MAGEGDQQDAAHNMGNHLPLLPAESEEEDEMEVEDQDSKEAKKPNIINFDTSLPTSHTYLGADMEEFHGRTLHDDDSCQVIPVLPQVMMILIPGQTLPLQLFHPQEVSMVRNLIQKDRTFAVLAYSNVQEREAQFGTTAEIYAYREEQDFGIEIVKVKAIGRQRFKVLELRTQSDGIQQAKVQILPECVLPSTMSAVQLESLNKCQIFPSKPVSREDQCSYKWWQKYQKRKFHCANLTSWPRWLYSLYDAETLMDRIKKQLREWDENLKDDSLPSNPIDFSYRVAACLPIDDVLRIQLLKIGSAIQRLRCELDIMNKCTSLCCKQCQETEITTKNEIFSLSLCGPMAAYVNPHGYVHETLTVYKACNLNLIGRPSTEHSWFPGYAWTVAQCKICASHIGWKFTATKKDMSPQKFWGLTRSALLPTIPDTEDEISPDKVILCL

[2] = test system: CWR22R; assay: Antitumor activity against human 22Rv1 cells xenografted in BALB/c nude mouse assessed as suppression of tumor growth at 10 mg/kg, iv administered once daily for 21 days; format: functional, organism-based; conditions: time 21.0 day
[3] = test system: Protein cereblon/Androgen receptor (Homo sapiens), P10275+Q96SW2 [UNDEFINED MUTATION]; assay: PROTAC activity at AR-V7/CRBN in human 22Rv1 cells assessed as induction of AR-V7 degradation at 100 nM incubated for 12 hrs in presence of Thalidomide by Western blot analysis; format: cell-based; conditions: CWR22R
Chain of Protein cereblon/Androgen receptor (Homo sapiens), P10275+Q96SW2 [UNDEFINED MUTATION] (P10275 whole entry, looked up, stated change not applied): as the sequence (P10275 whole entry, looked up) above
Chain of Protein cereblon/Androgen receptor (Homo sapiens), P10275+Q96SW2 [UNDEFINED MUTATION] (Q96SW2 whole entry, looked up, stated change not applied): as the sequence (Q96SW2 whole entry, looked up) above

[4] = test system: CWR22R; assay: Antitumor activity against human 22Rv1 cells xenografted in BALB/c nude mouse assessed as reduction in AR level at 10 mg/kg, iv administered once daily for 21 days; format: functional, organism-based; conditions: time 21.0 day
[5] = MRT (0 to t) in Sprague-Dawley rat 2 mg/kg, iv by LC-MS/MS analysis; format: ADME, organism-based; conditions: in vivo
[6] = Toxicity in BALB/c mouse assessed as body weight loss at 10 mg/kg, iv administered once daily for 21 days; format: organism-based; conditions: in vivo, 504 h, time 21 day
[7] = Half life in Sprague-Dawley rat 2 mg/kg, iv by LC-MS/MS analysis; format: ADME, organism-based; conditions: in vivo
[8] = test system: CWR22R; assay: Induction of cell cycle arrest in human 22Rv1 cells assessed as accumulation of cells at S phase at 500 nM incubated for 24 hrs by PI staining based flow cytometry analysis (reference value: […]%); format: functional
[9] = test system: CWR22R; assay: Induction of apoptosis in human 22Rv1 cells assessed as viable cells at 100 nM incubated for 48 hrs by Annexin V/FITC staining based flow cytometry analysis (reference value: 94.49%); format: functional; conditions: read-out: Activity
[10] = Metabolic stability in human liver microsome assessed as intrinsic clearance measured upto 45 mins by LC/MS analysis; format: ADME; conditions: liver microsomes, read-out: CLH
[11] = test system: LNCaP; assay: PROTAC activity at AR-V7/CRBN in human LNCaP cells assessed as reduction in AR-V7 level incubated for 24 hrs by Western blot analysis; format: cell-based; conditions: dose <= 5.0 µM
[12] = molecular target: T1, Protein cereblon/Androgen receptor; assay: PROTAC activity at full length Androgen receptor/CRBN in human 22Rv1 cells assessed as reduction in full length androgen receptor level at 100 nM incubated for 24 hrs by immunofluorescence analysis; format: cell-based
[13] = Volume of distribution at steady state in Sprague-Dawley rat 2 mg/kg, iv by LC-MS/MS analysis; format: ADME, organism-based; conditions: in vivo, read-out: Vdss
[14] = Metabolic stability in rat liver microsome assessed as intrinsic clearance measured upto 45 mins by LC/MS analysis; format: ADME; conditions: liver microsomes, read-out: CLH
[15] = test system: CWR22R; assay: Induction of cell cycle arrest in human 22Rv1 cells assessed as accumulation of cells at G0/G1 phase at 500 nM incubated for 24 hrs by PI staining based flow cytometry analysis (reference value: 62.66%); format: functional
[16] = test system: CWR22R; assay: Induction of apoptosis in human 22Rv1 cells assessed as late apoptotic cells at 100 nM incubated for 48 hrs by Annexin V/FITC staining based flow cytometry analysis (reference value: 1.12 %); format: functional
[17] = test system: CWR22R; assay: Antitumor activity against human 22Rv1 cells xenografted in BALB/c nude mouse assessed as redcution in tumor volume at 10 mg/kg, iv administered once daily for 21 days; format: functional, organism-based; conditions: time 21.0 day
[18] = test system: CWR22R; assay: Downregulation of PSA mRNA level in human 22Rv1 cells incubated for 24 hrs by qRT-PCR analysis; format: functional, cell-based; conditions: dose 100-500 nM
[19] = test system: Protein cereblon/Androgen receptor (Homo sapiens), P10275+Q96SW2 [UNDEFINED MUTATION]; assay: PROTAC activity at AR-V7/CRBN in human 22Rv1 cells assessed as induction of AR-V7 degradation at 100 nM incubated for 12 hrs in presence of MG132 by Western blot analysis; format: cell-based; conditions: CWR22R
[20] = AUC (0 to t) in Sprague-Dawley rat 2 mg/kg, iv by LC-MS/MS analysis; format: ADME, organism-based; conditions: in vivo
[21] = test system: CWR22R; assay: Antitumor activity against human 22Rv1 cells xenografted in BALB/c nude mouse assessed as reduction in AR-v7 level at 10 mg/kg, iv administered once daily for 21 days; format: functional, organism-based; conditions: time 21.0 day
[22] = Metabolic stability in human liver microsome assessed as half life measured upto 45 mins by LC/MS analysis; format: ADME; conditions: liver microsomes
[23] = test system: CWR22R; assay: Induction of cell cycle arrest in human 22Rv1 cells assessed as accumulation of cells at G2/M phase at 100 nM incubated for 24 hrs by PI staining based flow cytometry analysis (reference value: 8.61%); format: functional
[24] = test system: Protein cereblon/Androgen receptor (Homo sapiens), P10275+Q96SW2 [UNDEFINED MUTATION]; assay: PROTAC activity at AR-V7/CRBN in human 22Rv1 cells assessed as reduction in AR-V7 level at 100 nM incubated for 24 hrs by immunofluorescence analysis; format: cell-based; conditions: CWR22R
[25] = test system: CWR22R; assay: Antitumor activity against human 22Rv1 cells xenografted in BALB/c nude mouse assessed as redcution in tumor weight at 10 mg/kg, iv administered once daily for 21 days; format: functional, organism-based; conditions: time 21.0 day
[26] = test system: CWR22R; assay: Induction of apoptosis in human 22Rv1 cells assessed as late apoptotic cells at 500 nM incubated for 48 hrs by Annexin V/FITC staining based flow cytometry analysis (reference value: 1.12 %); format: functional
[27] = test system: Protein cereblon/Androgen receptor (Homo sapiens), P10275+Q96SW2 [UNDEFINED MUTATION]; assay: PROTAC activity at AR-V7/CRBN in human 22Rv1 cells assessed as induction of AR-V7 degradation at 5 uM incubated for 24 hrs by Western blot analysis relative to control; format: cell-based; conditions: CWR22R
[28] = test system: CWR22R; assay: Antiproliferative activity against human 22Rv1 cells incubated for 4 days by CCK-8 assay; format: functional, cell-based; conditions: 22Rv1, 96 h
[29] = test system: CWR22R; assay: Downregulation of UBE2C mRNA level in human 22Rv1 cells incubated for 24 hrs by qRT-PCR analysis; format: functional, cell-based; conditions: dose 100-500 nM
[30] = test system: CWR22R; assay: Downregulation of KLK2 mRNA level in human 22Rv1 cells incubated for 24 hrs by qRT-PCR analysis; format: functional, cell-based; conditions: dose 100-500 nM
[31] = molecular target: T1, Protein cereblon/Androgen receptor; assay: PROTAC activity at full length Androgen receptor/CRBN in human 22Rv1 cells assessed as induction of full length androgen receptor degradation at 100 nM incubated for 12 hrs in presence of MG132 by Western blot analysis; format: cell-based
[32] = molecular target: Voltage-gated inwardly rectifying potassium channel KCNH2 (Homo sapiens, UniProt Q12809); assay: Inhibition of hERG; format: toxicity
Chain of Voltage-gated inwardly rectifying potassium channel KCNH2 (Q12809 whole entry): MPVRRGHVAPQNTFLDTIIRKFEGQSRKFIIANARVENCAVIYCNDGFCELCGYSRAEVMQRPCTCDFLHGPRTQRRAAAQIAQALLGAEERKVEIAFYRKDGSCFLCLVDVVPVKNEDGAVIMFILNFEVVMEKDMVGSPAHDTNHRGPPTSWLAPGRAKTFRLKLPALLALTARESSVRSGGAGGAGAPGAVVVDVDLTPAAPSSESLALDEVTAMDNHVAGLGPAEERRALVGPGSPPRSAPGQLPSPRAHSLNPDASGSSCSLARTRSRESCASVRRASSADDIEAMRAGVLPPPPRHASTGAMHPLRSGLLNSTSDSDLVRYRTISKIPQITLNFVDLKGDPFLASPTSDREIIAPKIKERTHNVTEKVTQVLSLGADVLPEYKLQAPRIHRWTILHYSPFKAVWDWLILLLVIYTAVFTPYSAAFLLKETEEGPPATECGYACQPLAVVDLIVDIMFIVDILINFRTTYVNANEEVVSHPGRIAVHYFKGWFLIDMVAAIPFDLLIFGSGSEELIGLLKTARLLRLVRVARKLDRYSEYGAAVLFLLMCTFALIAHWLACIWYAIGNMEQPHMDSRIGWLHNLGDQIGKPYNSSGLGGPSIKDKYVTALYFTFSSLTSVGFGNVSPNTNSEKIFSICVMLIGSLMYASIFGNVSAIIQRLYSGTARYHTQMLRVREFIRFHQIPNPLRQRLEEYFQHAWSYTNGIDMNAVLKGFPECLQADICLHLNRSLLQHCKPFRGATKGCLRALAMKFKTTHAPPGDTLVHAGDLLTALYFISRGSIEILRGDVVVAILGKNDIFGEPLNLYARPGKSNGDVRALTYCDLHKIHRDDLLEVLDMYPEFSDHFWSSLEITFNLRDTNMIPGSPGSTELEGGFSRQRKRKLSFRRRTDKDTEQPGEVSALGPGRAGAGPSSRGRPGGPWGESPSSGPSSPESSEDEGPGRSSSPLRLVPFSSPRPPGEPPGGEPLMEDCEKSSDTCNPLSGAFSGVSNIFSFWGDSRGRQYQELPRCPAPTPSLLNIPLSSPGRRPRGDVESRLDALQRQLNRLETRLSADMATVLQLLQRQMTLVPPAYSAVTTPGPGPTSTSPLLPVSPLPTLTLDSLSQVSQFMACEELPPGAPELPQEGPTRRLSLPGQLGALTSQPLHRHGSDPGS

[33] = Toxicity in BALB/c mouse assessed as kidney damage at 10 mg/kg, iv administered once daily for 21 days by H and E staining based analysis; format: organism-based; conditions: in vivo, 504 h, time 21 day
[34] = AUC (0 to infinity) in Sprague-Dawley rat 2 mg/kg, iv by LC-MS/MS analysis; format: ADME, organism-based; conditions: in vivo
[35] = test system: Protein cereblon/Androgen receptor (Homo sapiens), P10275+Q96SW2 [UNDEFINED MUTATION]; assay: PROTAC activity at AR-V7/CRBN in human 22Rv1 cells assessed as induction of AR-V7 degradation at 1 uM incubated for 24 hrs by Western blot analysis relative to control; format: cell-based; conditions: CWR22R
[36] = Toxicity in BALB/c mouse assessed as liver damage at 10 mg/kg, iv administered once daily for 21 days by H and E staining based analysis; format: organism-based; conditions: in vivo, 504 h, time 21 day
[37] = test system: CWR22R; assay: Induction of apoptosis in human 22Rv1 cells assessed as necrotic cells at 500 nM incubated for 48 hrs by Annexin V/FITC staining based flow cytometry analysis (reference value: 2.31 %); format: functional

- Activity [1]: Dose-dependent-effect
- Activity [3]: Active
- MRT last [5]: 32.4 min
- half-life [7]: 158 min
- CLint scaled [10]: 43.1 mL/min/kg
- Activity [12]: Active
- Vd [13]: 0.571 L/kg
- CLint scaled [14]: 40.8 mL/min/kg
- Activity [19]: Active
- AUC(0-t) [20]: 2210 ng·h/mL
- half-life [22]: 37.2 min
- Activity [24]: Active
- Activity [27]: 89.6%
- Activity [31]: Active
- AUC(0-inf) [34]: 2220 ng·h/mL
- Activity [35]: 88.7%
Structure (SMILES): CC(C)(c1ccc(OCCNc2cccc3c2C(=O)N(C2CCC(=O)NC2=O)C3=O)cc1)c1ccc(OCc2cccc(N3CCOCC3)n2)cc1 (configuration not stated)
- Activity [2]: Active
- Activity [4]: Active
- Activity [6]: Non-toxic
- Activity [8]: 38.58%
- viability at 0.1 µM [9]: 71%
- Activity [11]: Dose-dependent-effect
- Activity [15]: 39.88%
- Activity [16]: 12.29%
- Activity [17]: Active
- Activity [18]: Dose-dependent-effect
- Activity [21]: Active
- Activity [23]: 15.45%
- Activity [25]: Active
- Activity [26]: 15.59%
- IC50 [28]: 38 nM
- Activity [29]: Dose-dependent-effect
- Activity [30]: Dose-dependent-effect
- IC50 [32]: > 10000 nM
- Activity [33]: Non-toxic
- Activity [36]: Non-toxic
- Activity [37]: 2.4%
